Results as given in patent publication EP1114060B1, “PROCESS FOR PRODUCING PEPTIDES FROM BIOLOGICAL FLUIDS AND PEPTIDES […] SAID PROCESS” (NIZO food research, priority 1998, dated 2003).
Bridges are numbered along the chain shown (N, C = ends). Where no end group is shown, it is not given here. [ ]: non-standard residue; d: D form. Dhb = C/C=C(\N)C(=O)O; Dha = C=C(N)C(=O)O

Tested on: Micrococcus flavus DSM 1790
Assay: plate diffusion assay for antibacterial activity
Format: cell-based
Details: fraction desorbed with 1 M KCI in phosphate buffer, pH 7.0
Method: Antibacterial activities of the peptide mixtures and/or isolated peptides were determined by a plate diffusion assay using Micrococcus flavus DSM 1790 as indicator organism. M. flavus was grown in MF broth (0.1% sucrose, 1% peptone, 0.3% meat extract, 0.2% NaCI, 0.15% yeast extract pH 7.0). Peptide mixtures were tested at concentrations from 0.2 mg/ml to 50 mg/ml in bidistilled water.

## nisin A (I[Dhb]SI[Dha]LCTPGCKTGALMGCNMKTATCHCSIHV[Dha]K; bridge 23-26, 13-19, 8-11, 25-28, 3-7; not fully specified (bridges); UniProt P13068 24-57, looked up) [lantibiotic]
  activity against Micrococcus flavus: showed activity
